Test results as given in patent publication US20180153830A1, “SELECTIVE INHIBITORS OF UNDIFFERENTIATED CELLS” (Yissum Research Development Company of the Hebrew …, priority 2012, published 2018).

Experiments:
Assay type in all cases: cell-based
BJ-fibroblasts = assay: CellTiter-Glo counter-screen, BJ-fibroblasts; conditions: Homo sapiens; for EC50: 24 hours, differentiated cells
Procedure: (§1) The cervical carcinoma cell line HeLa, teratocarcinoma cell line NTERA-2, and immortalized BJ fibroblast cell line, were cultured in DMEM supplemented with 10% FBS, penicillin (50 U/ml) and streptomycin (50 μg/ml).
(§2) 696 confirmed hits from the confirmation screen were tested for profiling in a panel of 13 different cell types, using the same screening protocol described above (except in the case of embryonic stem cell-derived neural stem cells (NSCs) and mesenchymal stem cells (MSCs), for which the protocol is described below). As discussed below, compounds were tested either in dose-dependent multiple concentration manner or in single concentration manner. CSES2 and CSES2-SO2/3 cell lines and the early endodermal progenitors derived from this cell line (CSES2-SO2/3-differentiated) were screened at 8 concentrations ranging from 50 μM to 23 nM with 1:3 serial dilution steps. BJ-iPS28 cell line and the BJ fibroblasts from which it was derived were screened at 6 concentrations ranging from 50 μM to 200 nM with 1:3 serial dilution steps. Cardiomyocytes were screened in one concentration of 20 μM. HeLa and NTERA-2 cell lines were screened in duplicates of 20 μM. Kelly and Huh-7 were screened in triplicates of 20 μM. Hepatocytes were screened in duplicates of 20 μM in the original 96-well plates in which the cells arrived (40,000 cells per well, in 160 μl medium, the volumes of all reagents involved were adjusted accordingly). MSCs and NSCs were screened in duplicates of 12.5 μM.
(§3) In order to identify highly-selective cytotoxic inhibitors of hPSCs, the 696 cytotoxic inhibitors of hPSCs identified as described in Example 1 were counter-screened as described in the Materials and Methods section against other cell types, representative of all germ layers and developmental stages. Importantly, many of these cell types were differentiated from human ES or iPS cells. The screened cell types included ES-derived neural stem cells (NSCs), ES-derived mesenchymal stem cells (MSCs), ES-derived endodermal progenitor cells, ES-derived hepatocytes, iPS-derived cardiomyocytes, iPS-derived fibroblasts of origin (BJ fibroblasts), and three cancer cell lines: neuroblastoma (Kelly), cervical cancer (HeLa) and hepatocarcinoma (Huh7). The cell types and their relationship to stem cells are depicted schematically in FIG. 14.
In addition, the identified compounds were screened at 6 concentrations using the BJ-fibroblasts from which the iPS line BJ-iPS28 had been derived, and reliable EC50 values were thereby calculated for both the iPS cells and for their somatic cells of origin.

[1] = tested on: iPS-derived cardiomyocytes; assay: CellTiter-Glo counter-screen, cardiomyocytes; conditions: Homo sapiens, Cardiomyocyte
Procedure: Human induced pluripotent stem cell-derived cardiomyocytes were obtained from Cellular Dynamics International (Madison, Wis.), and handled according to the manufacturer's instructions;
as §2, §3

[2] = tested on: CSES2-SO2/3 embryonic stem cells; assay: CellTiter-Glo luminescent cell viability screen, CSES2-SO2/3; conditions: Homo sapiens; for EC50: 24 h; for inhibition at 20 µM: pluripotent stem cells
Procedure: (§4) 5,000 CSES2 cells were plated in 50 μl per well of mTeSR1 medium into black 384-well clear-bottom plates (Falcon BD) pre-coated with Matrigel™ using WellMate cell dispenser (Matrix, Hudson, N.H.). 24 hours after plating, medium was replaced with 25 μl of fresh medium and 25 μl of 40 μM compound medium solutions in 1% DMSO from the intermediate compound dilution plates. The plates were incubated at 37° C., in a 5% CO2 atmosphere, for the entire duration of the screen, apart from the time required for liquid handling. Cell viability was determined 24 hours after compound treatment using CellTiter-Glo® luminescent cell viability assay kits. 50 μl of CellTiter-Glo® reagent was added to each well of the assay plates and fully mixed. After incubation at room temperature for 15 minutes, 25 μl of liquid was transferred from each well into a white opaque-bottom 384-well plate (PerkinElmer), and luminescence was measured using an EnVision® plate reader (PerkinElmer). 16 neutral control wells (0.5% DMSO) and 8 positive control wells (5 μM amsacrine hydrochloride were used to normalize the compound effect. All liquid transfer steps were handled with a Biomek® FXP Laboratory Automation Workstation (Beckman Coulter, Fullerton, Calif.) and Muitidrop Combi liquid dispenser (Thermo Fisher, Waltham, Mass.). An Assay Analyzer (Genedata, Basel, Switzerland) was used for data pattern correction and calculation. The Spotfire software (Spotfire, Somerville, Mass.) was used for data illustration.
The compounds identified as hits from the primary screen were retested at a concentration of 20 μM against three pluripotent stem cell lines (CSES2, H9 and CSES2-SO2/3) for confirmation screens.
as §2
(§5) The raw intensity data for each well were background-corrected by subtraction of the median intensities across all positive control wells on the same plate, and used to calculate the inhibitory effect of each compound per cell line. A Genedata Assay Analyzer and Condoseo were used for data pattern correction, calculation and IC50 curve fitting. A Z′ factor was determined for each plate.

[3] = tested on: BJ-iPS28 induced pluripotent stem cells; assay: CellTiter-Glo luminescent cell viability screen, BJ-iPS28; conditions: Homo sapiens; for EC50: 24 h; for inhibition at 20 µM: pluripotent stem cells
Procedure: as §4
as §2, with “BJ-iPS28 cell line and the BJ fibroblasts from which it was derived were screened at 6 concentrations ranging from 50 μM to 200 nM with 1:3 serial dilution steps.” left out
as §5
The effect of the selected compounds on human iPS cells was then determined. […]

[4] = tested on: ES-derived mesenchymal stem cells; assay: CellTiter-Glo counter-screen, mesenchymal stem cells; conditions: Homo sapiens, at 20 μM (table title)
HeLa cells = assay: CellTiter-Glo counter-screen, HeLa; conditions: Homo sapiens, cancer cells
Procedure: as §1, §2, §3

SMILES | EC50 (BJ-fibroblasts) [µM] | inhibition at 20 µM (BJ-fibroblasts) [%] | inhibition at 20 µM [1] [%] | EC50 [2] [µM] | inhibition at 20 µM [2] [%] | EC50 [3] [µM] | inhibition at 20 µM [3] [%] | inhibition at 12.5 µM [4] [%] | inhibition at 20 µM (HeLa cells) [%]
O=C1C=CC=C1/C=C/C(=N\Nc1ccccc1)c1ccccc1 [PluriSIn #13] | > 50 | -15.4 | 22.9 | 3.45 | 94.6 | 1.51 | 94.4 | -7.3 | 0
Nc1cc(N)cc(COc2ccc(-c3ccccc3)cc2)c1 [PluriSIn #3] | > 50 | -25.4 | -2.9 | 2.79 | 97.4 | 1.68 | 81.1 | 3.3 | -4.2
Cc1oc2ccccc2c1/C=N/Nc1ccccc1 [PluriSIn #8] | > 50 | -10.3 | 8.9 | 3.69 | 92.7 | 1.69 | 82.2 | -33.8 | 14.3
O=C(NN(C(=O)c1ccccc1)c1ccccc1)c1ccc(Cl)cc1 [PluriSIn #14] | > 50 | -18.6 | 3.9 | 5.51 | 90.1 | 3.48 | 81.7 | -1.5 | -2.3
O=S(=O)(NNc1ccccc1)c1ccc2ccccc2c1 [PluriSIn #5] | > 50 | -7.5 | 3.1 | 3.2 | 92.3 | 1.52 | 87.9 | 6.4 | -0.6
O=C(Nc1ccccc1)n1cc(F)c(=O)[nH]c1=O [PluriSIn #2] | > 50 | -8.3 | 4.4 | 12.4 | 54.3 | 6.96 | 56.8 | -1.4 | -2.1
CCN(CC)C(=O)C(=O)c1c(-c2ccccc2)[nH]c2c1sc1ccccc12 [PluriSIn #12] | > 50 | -8.4 | -3.3 | 6.04 | 92.9 | 5.4 | 83.4 | -7.3 | 15.2
CCCCCC(=O)NNc1ccc(Cl)cc1 [PluriSIn #10] | > 50 | -20.1 | 12.6 | 2.49 | 95.2 | 2.43 | 87.4 | 3.9 | 3
C(=N\C1CCC(CC2CCCCC2)CC1)/OC1CCOC1 (centres unmarked) [PluriSIn #15] | > 50 | -6.1 | 3.8 | 10 | 72.2 | 3.94 |  | 12 | 17.8
CCOC(=O)CN1CC(=O)/C(=C\NNc2ccccc2)C1=O [PluriSIn #11] | > 50 | -19.3 | -5.8 | 3.62 | 92.5 | 3.12 | 90.6 | 6 | -0.7
O=C(NNc1ccccc1)c1ccncc1 [PluriSIn #1, isonicotinic acid N′-phenylhydrazide] | > 50 | -8.8 | 15 | 3.91 | 90.8 | 2.39 | 85.4 | -4.9 | 5.7
O=C(NCCc1ccc(O)cc1)c1ccc(N2CCCCC2)cc1 [PluriSIn #4] | > 50 | -22.9 | 14.1 | 4.71 | 74.5 | 0.75 | 74.8 | -8.1 | 2.2
CC(=O)Oc1ccc(/C=C/c2ccc3c(c2)CCN3C)cc1 [PluriSIn #7] | > 50 | -9.7 | 6.8 | 2.74 | 95.4 | 2.13 | 89 | 35.8 | -3.6
C/C(=N\O)NNc1ccc(Cl)cc1 [PluriSIn #9] | > 50 | -22.7 | 24.7 | 4.61 | 89.2 | 3.42 | 92.3 | -12.6 | -0.7
Cc1ccc(NNC(=O)C(O)(c2ccccc2)c2cccs2)cc1 (centres unmarked) [PluriSIn #6, 2-hydroxy-2-(thiophen-2-yl)-2-phenylacetic acid 4-methyl-N′-phenylhydrazide] | > 50 | 15.9 | 2.6 | 3.75 | 93.2 | 2.26 | 83.3 | -19.7 | 2.6
